In US10176292B2, “STING crystals and modulators” (MEMORIAL SLOAN-KETTERING CANCER CENTER, priority 2013, dated 2019):

Assays:
hSTING^group2 = molecular target: T1, hSTING^group2 (Homo sapiens, UniProt Q86WV6, D237N/G230I/I244V/K224M/L222R/T229N); experiment: IFN-β luciferase reporter, hSTING^group2; format: cell-based; conditions: 0.18 mM DMXAA (50 μg/ml), 12 hours
T1 construct: Full-length hSTING (wt and substitutions) and mSTING (wt) constructs were used for this cellular assay; expressed in transfected cells; host or cells: 293T
Protocol: (§1) Luciferase assays for DMXAA experiments were performed as described above. Briefly, 3×10^4 293T cells were reverse-transfected with STING constructs (5 ng per 96-well) and reporter constructs (50 ng pIFNβ-Gluc, 10 ng pLenti-EF1-Fluc for normalization, 35 ng pMAX-empty as stuffer, delivered with TransIT-LT1, MirusBio, Madison Wis.). […] 12 hours after stimulation with STING-ligands, cells were resuspended in passive lysis buffer and luciferase activity was determined using the respective substrates Coelenterazine and D-Luciferin (PJK, Kleinblittersdorf, Germany). Gaussia Luciferase values were then normalized to constitutive Firefly Luciferase values (resulting in Relative Light Units, RLU).
(§2) Full-length hSTING (wt and substitutions) and mSTING (wt) constructs were used for this cellular assay, and were expressed at moderate levels allowing ligand-dependent activation of IFN-β promoter.

wt hSTING = molecular target: T2, wt hSTING (Homo sapiens, UniProt Q86WV6, H232R); experiment: Real-time PCR in STING^Gt/Gt BMDCs transduced with wt hSTING; format: cell-based; conditions: 50 μg/ml DMXAA, 3 hours
T2 construct: expressed in transfected cells; host or cells: bone marrow-derived dendritic cells of STING^Gt/Gt mice, retroviral transduction (pQCXIP-HA)
Protocol: (§3) The protocol for generation of bone marrow-derived dendritic cells was described before (Dai et al., 2014). […] BMDCs (1×10^6 cells/well) were infected with retroviruses expressing hSTING (wt and various substitution mutants).
(§4) hSTING cDNAs were cloned into pQCXIP-HA vector. In vitro packaging system was used to generate retroviruses according to protocol (Clontech). BMDCs (1×10^6 cells/well) were seeded into 6-well plates and infected with retroviruses. […] CXCL10 protein level was determined by ELISA.

hSTING^S162A/G230I/Q266I = hSTING^S162A/G230I/Q266I (Homo sapiens, UniProt Q86WV6, G230I/H232R/Q266I/S162A); experiment: CXCL10 ELISA in STING^Gt/Gt BMDCs transduced with hSTING^S162A/G230I/Q266I; format: cell-based; conditions: 50 μg/ml DMXAA, supernatants at 18 h; compared with the other hSTING substituents
Protocol: as §3, §4
CXCL10 was measured using the BD Opteia human IP-10 ELISA Set according to manufacturer's recommendations. Murine IFN-α was determined by ELISA using antibody RMMA-1 for capture and rabbit-anti-murine IFN-α polyclonal antibody for detection (PBL Interferon Source, Piscataway, N.J.). Dose-response curves were fitted and EC50 values were determined with Graphpad Prism (Graph Pad Software Inc., San Diego, Calif.).

hSTING^S162A = molecular target: T3, hSTING^S162A (Homo sapiens, UniProt Q86WV6, H232R/S162A); experiment: Real-time PCR in STING^Gt/Gt BMDCs transduced with hSTING^S162A; format: cell-based; conditions: 50 μg/ml DMXAA, 3 hours
T3 construct: expressed in transfected cells; host or cells: bone marrow-derived dendritic cells of STING^Gt/Gt mice, retroviral transduction (pQCXIP-HA)
Protocol: as §3, §4

hSTING^H232/A162 = hSTING^H232/A162 (Homo sapiens, UniProt Q86WV6, S162A); experiment: ITC binding, hSTING^H232 mutant S162A; conditions: DMXAA; Protein: 0.08 mM; Ligands: 0.8 mM; 180 mM NaCl, pH 7.5; 25° C.
[1] = molecular target: T4, hSTING^S162A/Q266I (aa 155-341) (Homo sapiens, UniProt Q86WV6, H232R/Q266I/S162A); experiment: X-ray crystal structure of DMXAA-hSTING^S162A/Q266I complex (Table 8 coordinates); conditions: X-ray refinement (PHENIX) of DMXAA-hSTING^S162A/Q266I complex
T4 construct: His6-SUMO (N, cleaved yes); made in house; host or cells: E. coli BL21 (DE3) RIL, modified pRSFDuet-1 vector
Protocol: The crystals were generated by sitting drop vapor diffusion method at 20° C., by mixing equal volume reservoir solution with the sample. The detailed conditions are listed below: DMXAA-hSTING^group2: 2 M LiCl, 10% PEG6000, 0.01 M CaCl2, 0.1 M Tris, pH 7.8; DMXAA-hSTING^G230I: 0.2 M Li2SO4, 20% PEG 3350, 0.015 mM CYMAL®-7, 0.1 M Tris, pH 8.1; DMXAA-hSTING^S162A/Q266I: 0.2 M Ca(Ac)2, 15% PEG3000, 0.01 M L-Proline, 0.1 M NaAc, pH 5.1; DMXAA-hSTING^S162A/G230I/Q266I: 0.2 M Ca(Ac)2, 15% PEG3000, 0.1 M LiCl, 0.1 M NaAc, pH 5.1. All structures were solved using PHASER, COOT, PHENIX, and REFMAC programs.
(PDB: 4F5D) as the search model. […] For the cGAMP-STING binary structures, two STING molecules in the STING dimer have equal probability to bind with either G or A moiety of the cGAMP isomers. […] We therefore assigned two conformations with 0.5 occupancy for bound cGAMP isomers.
(PDB: 4LOH) as the search model.
The model building was conducted using the program COOT (Emsley et al., 2010) and structural refinement was conducted using the program REFMAC (Murshudov et al., 1997).

hSTING^G230I [2] = molecular target: T5, hSTING^G230I (Homo sapiens, UniProt Q86WV6, G230I/H232R); experiment: Real-time PCR in STING^Gt/Gt BMDCs transduced with hSTING^G230I; format: cell-based; conditions: 50 μg/ml DMXAA, 3 hours
Protocol: as §3, §4

[3] = test system: hSTING^group1 (aa 140-379); experiment: ITC binding, hSTING^group1; conditions: isolated group1 substitutions
hSTING^G230I [4] = molecular target: T5, hSTING^G230I; experiment: IFN-β luciferase reporter, hSTING^G230I; format: cell-based; parameters: Full-length hSTING (wt and substitutions) and mSTING (wt) constructs were used for this cellular assay; expressed in transfected cells; host or cells: 293T; conditions: ascending concentrations of DMXAA, 12 hours
Protocol: as §1

hSTING^group134 = experiment: IFN-β luciferase reporter, hSTING^group134; format: cell-based, human; conditions: 0.18 mM DMXAA; compared with hSTING^group1234
Protocol: as §1, §2

hSTING^group3 = experiment: ITC binding, hSTING^group3; conditions: isolated group3 substitutions

T4 sequence (Q86WV6 155-341 S162A/H232R/Q266I): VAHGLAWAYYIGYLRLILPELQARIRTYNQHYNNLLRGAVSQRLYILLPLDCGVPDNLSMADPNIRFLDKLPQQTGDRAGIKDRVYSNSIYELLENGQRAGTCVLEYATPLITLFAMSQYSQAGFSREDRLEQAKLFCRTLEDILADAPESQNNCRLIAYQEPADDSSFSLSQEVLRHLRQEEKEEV
hSTING^H232/A162, sequence (Q86WV6 140-379 S162A): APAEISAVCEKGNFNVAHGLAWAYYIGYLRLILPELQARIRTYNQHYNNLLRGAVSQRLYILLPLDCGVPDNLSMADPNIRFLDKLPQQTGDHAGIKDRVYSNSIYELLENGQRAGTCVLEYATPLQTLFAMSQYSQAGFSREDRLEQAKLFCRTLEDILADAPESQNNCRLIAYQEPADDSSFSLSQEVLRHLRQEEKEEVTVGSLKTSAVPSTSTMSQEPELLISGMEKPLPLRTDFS
T5 sequence (Q86WV6 whole entry G230I/H232R): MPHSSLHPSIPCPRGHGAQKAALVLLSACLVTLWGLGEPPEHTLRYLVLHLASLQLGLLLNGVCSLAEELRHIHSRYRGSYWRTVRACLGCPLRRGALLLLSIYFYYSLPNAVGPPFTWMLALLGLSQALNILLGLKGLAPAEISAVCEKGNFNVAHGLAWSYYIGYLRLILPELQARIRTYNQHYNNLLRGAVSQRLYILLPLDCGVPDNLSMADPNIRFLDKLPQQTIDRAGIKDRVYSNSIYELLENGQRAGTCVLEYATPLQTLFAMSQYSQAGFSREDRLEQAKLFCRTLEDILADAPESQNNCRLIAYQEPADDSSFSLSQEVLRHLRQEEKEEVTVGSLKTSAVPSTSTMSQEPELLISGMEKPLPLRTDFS
T1 sequence (Q86WV6 whole entry L222R/K224M/T229N/G230I/H232R/D237N/I244V): as the sequence (Q86WV6 whole entry G230I/H232R) above, with L222R, K224M, T229N, D237N, I244V counted along it
T2 sequence (Q86WV6 whole entry H232R): as the sequence (Q86WV6 whole entry G230I/H232R) above, with I230G counted along it
hSTING^S162A/G230I/Q266I, sequence (Q86WV6 whole entry S162A/G230I/H232R/Q266I): as the sequence (Q86WV6 whole entry G230I/H232R) above, with S162A, Q266I counted along it
T3 sequence (Q86WV6 whole entry S162A/H232R): as the sequence (Q86WV6 whole entry G230I/H232R) above, with S162A, I230G counted along it

Cc1ccc2c(=O)c3cccc(CC(=O)O)c3oc2c1C [DMXAA, 5,6-dimethylxanthenone-4-acetic acid]
IFN-β luciferase reporter response to DMXAA (hSTING^group2): showed responsiveness to DMXAA | up-regulation of IFN-β mRNA after DMXAA treatment (wt hSTING): did not induce the up-regulation | CXCL10 production (ELISA) (hSTING^S162A/G230I/Q266I): highest level of CXCL10 production | increases in IFN-β mRNA levels (hSTING^S162A): 2.2 fold | TΔS (hSTING^H232/A162): +7.99 Kcal/mol | ΔH (hSTING^H232/A162): +0.44 Kcal/mol | FREE R VALUE [1]: REMARK 3 FREE R VALUE: 0.2288 | R VALUE (WORKING SET) [1]: REMARK 3 R VALUE (WORKING SET): 0.1826 | RESOLUTION RANGE HIGH (ANGSTROMS) [1]: REMARK 3 RESOLUTION RANGE HIGH (ANGSTROMS): 2.420 | increases in IFN-β mRNA levels (hSTING^G230I [2]): 2.6 fold | binding to DMXAA (ITC) [3]: no detectable binding | IFN-β induction activity (luciferase), DMXAA (hSTING^G230I [4]): almost identical IFN-β induction as hSTING^group2 | IFN-β luciferase reporter response to DMXAA (hSTING^group134): strongly diminished DMXAA activation | binding to DMXAA (ITC) (hSTING^group3): no detectable binding
